According to ChEMBL document CHEMBL4610087, “Swinhopeptolides A and B: Cyclic Depsipeptides from the Sponge Theonella swinhoei That Inhibit Ras/Raf Interaction” (J Nat Prod, 2020):

Experiment: Inhibition of Ras-Raf (unknown origin) protein-protein interaction incubated for 4 hrs by cell based-BRET assay
Conditions: Homo sapiens

IC50	SMILES
5.8 µM	C/C=C(\NC(=O)[C@@H](CO)NC(=O)[C@@](C)(O)[C@H](O)/C=C\C(C)=C\[C@H](C)CC)C(=O)N[C@H](C(=O)N[C@H](C(=O)N[C@H]1C(=O)N[C@H](COC)C(=O)NCC(=O)N[C@@H](C)C(=O)N(C)[C@@H]([C@@H](C)O)C(=O)N[C@H]([C@H](OC)c2ccc(O)cc2)C(=O)N2CCC[C@H]2C(=O)O[C@@H]1C(C)C)[C@@H](C)[C@@H](C)C(N)=O)[C@H](C)N
8.5 µM	C/C=C(\NC(=O)[C@@H](CO)NC(=O)/C(C)=C/C=C/C(C)=C/C(C)CC)C(=O)N[C@H](C(=O)N[C@H](C(=O)N[C@H]1C(=O)N[C@H](COC)C(=O)NCC(=O)N[C@@H](C)C(=O)N(C)[C@@H]([C@@H](C)O)C(=O)N[C@H]([C@H](OC)c2ccc(O)cc2)C(=O)N2CCC[C@H]2C(=O)O[C@@H]1C(C)C)[C@@H](C)[C@@H](C)C(N)=O)[C@H](C)N (some centres not stated)
